Experimental data from publication PMC6874530, “Structural analysis identifies an escape route from the adverse lipogenic effects of liver X receptor ligands” (Communications Biology, 2019).
Like-named read-outs stand apart in the source and are kept apart here.

Experiments:
plasma triglycerides [1] = experiment: plasma TG induction in C57BL/6 mice vs plasma compound concentration (log-linear model); assay type: in vivo, mouse; conditions: for TG induction in plasma m (scaling factor) / TG induction in plasma C2, drug concentration corresponding to a twofold increase in TG levels: (% RSE); for TG induction in plasma Attributed class: mouse, in vivo
Experimental: Male C57BL/6JOlaHsd mice were retrieved from Harlan Laboratories (Horst, The Netherlands) around 7 weeks of age. […] Mice were given ad libitum access to water and standard rodent chow during the studies.
Compounds were given daily by oral gavage, 5 ml kg^−1, at doses ranging from 0.1 to 100 μmol kg^−1 of body weight for 4 days. Animals were terminated 3 h after the last dose.
(§1) At termination, the whole-blood volume was drawn from isoflurane-anesthetized mice via an incision in the carotid artery into EDTA blood tubes (S-Monovette®, EDTA KE/1.3 mL, Sarstedt, Nümbrecht, Germany or BD Microtainers®, Benton, Dickinson and Company, Franklin Lakes, New Jersey, USA). Blood samples were placed on ice and centrifuged within an hour (15 min, 2500 × g, 4 °C or 5 min, 16000 × g, 4 °C). The plasma was then dispensed in separate tubes and kept at −80 °C for later analysis of compound concentration and TG levels. For the analysis of intestinal Abca1 transcript levels, a 3–5-mm long segment of the duodenum was excised and cleared from any gut contents. Tissues were instantly snap frozen in liquid nitrogen and stored at −80 °C.
Plasma triglyceride levels were analyzed by using the Triglycerides/Glycerol Blanked reagent kit (Roche Diagnostics GMBH, Mannheim, Germany). Samples were measured on an ABX Pentra 400 instrument (Horiba Medical, Irvine, California, USA) or Cobas Mira plus instrument (Roche Diagnostics Corporation, Indianapolis, USA). […] Absorbance was measured by using a Tecan Infinite M200 plate reader (Tecan Austria GmbH, Salzburg, Austria).
About 25 µL of plasma was precipitated with 150 µL of cold acetonitrile containing 0.2% formic acid. […] Sample analysis was performed by using a reversed-phase high-pressure liquid chromatography system coupled to a Quattro Ultima triple-quadrupole mass spectrometer (Waters, UK). A rapid 2-min 4–90% (vol/vol) acetonitrile (containing 0.2% formic acid) gradient was used for chromatographic separation.
To rank the compounds, the drug concentration (C2) needed to generate a twofold increase in plasma TG was estimated by rearranging Eq. (2):3 C2=exp^2fold−BL−1/m^1/γ

plasma triglycerides [2] = system: plasma triglycerides; parameters: method as in van der Hoorn et al. 2011; conditions: AZ876 high dose 20 µmol·kg−1·day−1, GW3965 at a similar dose; ref van der Hoorn et al. 2011; cited from earlier work
Abca1 mRNA in intestine = experiment: intestinal Abca1 mRNA induction in C57BL/6 mice (Emax model); assay type: in vivo, mouse; conditions: for ED50: Mus musculus
Experimental: All procedures involving animals were conducted in accordance with accepted standards of good animal practice and approved by the respective local animal ethics committees (Gothenburg region Local Ethics Review Committee on Animal experiments and University of Virginia Animal Care and Use Committee). Male C57BL/6JOlaHsd mice were retrieved from Harlan Laboratories (Horst, The Netherlands) around 7 weeks of age. In the studies with BMS-852907, male 8-week C57BL/6J mice (Jackson Laboratories) were used. Mice were given ad libitum access to water and standard rodent chow during the studies.
Solid compounds were solubilized in PEG400/Ethanol/Solutol/Water solution (36.3/9.1/4.6/50%). Compounds were given daily by oral gavage, 5 ml kg^−1, at doses ranging from 0.1 to 100 μmol kg^−1 of body weight for 4 days. Animals were terminated 3 h after the last dose.
as §1
Snap-frozen intestinal tissues were quickly disrupted in QIAzol® (Qiagen, Hilden, Germany) or PureZOL™ (Bio-Rad Laboratories, Hercules, California, USA) by using a bead tissue homogenizer. Lysates were mixed with chloroform and centrifuged at 6000 × g for 15 min at 4 °C. Total RNA was purified from the upper aqueous phase on the ABI PRISM™ 6100 Nucleic Acid PrepStation (Applied Biosystems, Foster City, USA) or by using the RNeasy kit® (QIAGEN Sciences Inc., Germantown, Maryland, USA) including on-column DNase treatment by using the respective manufacturer’s protocol and reagents. Concentration of total RNA was determined on a NanoDrop™ ND-100 Spectrophotometer (Saveen Werner, Lögstrup, Sweden). The RNA templates were transferred to cDNA by reverse transcription by using the High-Capacity cDNA Reverse Transcription Kit (Applied Biosystems, Foster City, USA) according to the manufacturer’s protocol. Mouse ATP-binding cassette subfamily A member 1 (Abca1) was analyzed by using the forward primer 5′-[…]-3′, reverse primer 5′-[…]-3′, and the dual-labeled probe 5′-6FAM-[…]-TAMRA-3′. Mouse ribosomal protein large P0 (Rplp0, 36b4) was analyzed by using the forward primer 5′-[…]-3′, reverse primer 5′-[…]-3′, and the FAM-labeled probe 5′-[…]-TAMRA-3′. In the study with BMS-852907, RT-qPCR reactions were carried out in separate triplicate wells for Abca1 and Rplp0, respectively, by using 20 ng of cDNA template, 385 nM of the above-mentioned primers, and iQ™ SYBR Green Supermix (Bio-Rad, Hercules, California, USA) on a Bio-Rad MyiQ instrument (Bio-Rad, Hercules, California, USA). In the other studies, 400 nM Abca1 forward and reverse primers, 200 nM Abca1 probe, 200 nM Rplp0 forward and reverse primers, and 100 nM Rplp0 probe were mixed with 15 ng of cDNA template and TaqMan™ Gene Expression Master Mix (Applied Biosystems, Foster City, USA). The RT-qPCR reactions were performed on a 7500 Real-time PCR system (Applied Biosystems, Foster City, USA). Cycle threshold values (Ct) were retrieved from the instrument software. Relative changes in mRNA expression were calculated by using the comparative cycle method (2^−ΔΔCt). […]

[3] = po, read-out: Abca1 mRNA induction in intestine Attributed class
[4] = oral gavage daily for 4 days, C57BL/6 mice, (% RSE), read-out: Abca1 mRNA induction in intestine ED50

Row | SMILES | TG induction in plasma m (scaling factor) (plasma triglycerides [1]) | TG induction in plasma Attributed class (plasma triglycerides [1]) | TG induction in plasma C2, drug concentration corresponding to a twofold increase in TG levels (plasma triglycerides [1]) | increase of plasma triglyceride levels (plasma triglycerides [2]) | ED50 (Abca1 mRNA in intestine; [3]) | ED50 (Abca1 mRNA in intestine; [4]) | class of intestinal Abca1 induction (Abca1 mRNA in intestine)
1 | CC(C)(C)N1C(=O)C(Nc2ccc(N3CCCCC3)cc2)=C(c2ccccc2)S1(=O)=O [AZ876] | 3.44 (49) | Lipogenic | 0.269 (93) μM | 110% | ≤ 11.3 µmol/kg | 0.956 µmol/kg | –
2 | O=C(O)Cc1ccc(COc2cccc(-c3c(Cc4ccccc4)cnc4c(C(F)(F)F)cccc34)c2)cc1 [WAY-254011, reference compound] | 1.94 (4) | Lipogenic | 0.794 (8) μM | – | ≤ 11.3 µmol/kg | < 30 µmol/kg | high ABCA1
